Values of other authors as cited in patent US20240139316A1, “USE OF OREGOVOMAB AND BEVACIZUMAB, PACLITAXEL, CARBOPLATIN FOR TREATMENT OF BRCA-WILD TYPE PLATINUM SENSITIVE RECURRENT” (CANARIABIO INC., priority 2021, published 2024).

Experiments:
[1] = four infusions of Oregovomab with standard six cycle carboplatin and paclitaxel, relative to carboplatin-paclitaxel alone
[2] = oregovomab alone after the initial chemotherapy treatment, advanced ovarian cancer
[3] = stage III or IV ovarian cancer after initial surgical operation; bevacizumab added to carboplatin and paclitaxel, followed by single-agent bevacizumab

Substance | overall survival (OS) [1] | progression free survival (PFS) [1] | clinical outcome [2] | Progression-free survival [3]
Oregovomab | significant improvement | significant improvement | no improvements | 
bevacizumab: recombinant humanized IgG1 monoclonal antibody that selectively binds human VEGF-A |  |  |  | 18 months
carboplatin and paclitaxel |  |  |  | 13 months
